Experimental data taken from patent US9708318B2, “Bicyclic heterocycles as FGFR4 inhibitors” (Incyte Corporation, priority 2015, dated 2017).
Like-named read-outs stand apart in the source and are kept apart here.

Columns and labels:
FGFR2 = FGFR2 (Homo sapiens (Human), UniProt P21802); experiment: FGFR Enzymatic Assay (FRET peptide phosphorylation), FGFR2; type: biochemical
Description: (§1) The inhibitor potency of the exemplified compounds was measured in an enzyme assay that measures peptide phosphorylation using FRET measurements to detect product formation. Inhibitors were serially diluted in DMSO and a volume of 0.5 μL was transferred to the wells of a 384-well plate.
(§2) The enzymes were purchased from Millipore or Invitrogen.
(§3) GraphPad prism3 was used to analyze the data.

FGFR3 enzyme = FGFR3 enzyme (Homo sapiens (Human), UniProt P22607); experiment: FGFR Enzymatic Assay (FRET peptide phosphorylation), FGFR3; type: biochemical; conditions: for FGFR1/FGFR3 IC50 ratio / FGFR4/FGFR3 IC50 ratio: FGFR3 selectivity; for IC50: read-out: FGFR3 IC50
Description: as §1, §3

FGFR4 = FGFR4 (Homo sapiens (Human), UniProt P22455); experiment: FGFR Enzymatic Assay (FRET peptide phosphorylation), FGFR4; type: biochemical; conditions: for FGFR1/FGFR4 IC50 ratio / FGFR2/FGFR4 IC50 ratio / FGFR3/FGFR4 IC50 ratio: FGFR4 selectivity
Description: as §1, §2, §3

FGFR1 = FGFR1 (Homo sapiens (Human), UniProt P11362); experiment: FGFR Enzymatic Assay (FRET peptide phosphorylation), FGFR1
[1] = FGFR1 IC50 (nM), pre-incubated for 4 hours
[2] = pre-incubated for 5 to 10 minutes
[3] = read-out: FGFR1 IC50, pre-incubated for 5 to 10 minutes
[4] = read-out: FGFR1 IC50, pre-incubated for 4 hours

Chain of FGFR1 (P11362 22-822): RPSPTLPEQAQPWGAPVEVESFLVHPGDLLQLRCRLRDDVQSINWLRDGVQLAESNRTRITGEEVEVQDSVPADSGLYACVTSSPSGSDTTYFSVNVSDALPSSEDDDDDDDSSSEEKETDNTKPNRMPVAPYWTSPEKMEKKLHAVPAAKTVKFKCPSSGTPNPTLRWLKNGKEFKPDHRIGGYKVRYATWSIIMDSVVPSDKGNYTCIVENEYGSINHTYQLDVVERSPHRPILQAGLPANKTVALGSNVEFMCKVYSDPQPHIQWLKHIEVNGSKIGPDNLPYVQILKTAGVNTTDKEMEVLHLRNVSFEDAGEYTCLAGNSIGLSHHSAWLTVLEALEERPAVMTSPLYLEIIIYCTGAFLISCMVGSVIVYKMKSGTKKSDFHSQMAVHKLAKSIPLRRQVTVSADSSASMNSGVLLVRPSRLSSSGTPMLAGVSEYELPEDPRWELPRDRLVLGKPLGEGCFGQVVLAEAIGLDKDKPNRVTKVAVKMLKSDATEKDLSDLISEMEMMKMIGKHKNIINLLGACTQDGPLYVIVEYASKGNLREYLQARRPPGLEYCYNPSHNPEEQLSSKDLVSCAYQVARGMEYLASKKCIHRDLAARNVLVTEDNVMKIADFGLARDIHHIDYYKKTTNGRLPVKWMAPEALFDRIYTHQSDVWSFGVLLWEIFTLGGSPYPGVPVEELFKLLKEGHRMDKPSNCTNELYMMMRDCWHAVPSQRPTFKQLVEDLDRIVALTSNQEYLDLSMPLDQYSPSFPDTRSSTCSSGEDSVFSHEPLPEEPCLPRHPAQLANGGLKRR
Chain of FGFR3 enzyme (P22607 23-806): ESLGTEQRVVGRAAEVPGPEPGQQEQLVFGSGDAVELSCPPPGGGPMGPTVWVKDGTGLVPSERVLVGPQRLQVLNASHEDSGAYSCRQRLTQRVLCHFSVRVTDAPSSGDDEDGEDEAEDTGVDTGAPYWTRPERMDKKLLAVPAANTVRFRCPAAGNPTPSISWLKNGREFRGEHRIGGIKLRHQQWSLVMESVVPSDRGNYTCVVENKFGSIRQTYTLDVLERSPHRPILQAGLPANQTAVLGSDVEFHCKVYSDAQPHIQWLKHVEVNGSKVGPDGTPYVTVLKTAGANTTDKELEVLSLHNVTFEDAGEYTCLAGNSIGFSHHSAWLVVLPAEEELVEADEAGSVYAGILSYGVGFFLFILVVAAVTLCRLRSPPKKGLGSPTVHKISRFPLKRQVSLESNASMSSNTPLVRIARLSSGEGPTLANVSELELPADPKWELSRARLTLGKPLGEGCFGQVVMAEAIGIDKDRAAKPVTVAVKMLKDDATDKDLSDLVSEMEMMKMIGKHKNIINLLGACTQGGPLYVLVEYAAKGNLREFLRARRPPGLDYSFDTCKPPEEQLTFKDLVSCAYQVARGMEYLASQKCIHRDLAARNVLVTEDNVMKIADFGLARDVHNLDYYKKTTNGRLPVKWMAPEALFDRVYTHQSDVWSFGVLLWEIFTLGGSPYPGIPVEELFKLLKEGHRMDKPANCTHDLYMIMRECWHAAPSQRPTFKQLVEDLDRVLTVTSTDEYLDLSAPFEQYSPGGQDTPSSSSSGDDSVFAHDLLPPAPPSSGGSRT
Chain of FGFR4 (P22455 22-802): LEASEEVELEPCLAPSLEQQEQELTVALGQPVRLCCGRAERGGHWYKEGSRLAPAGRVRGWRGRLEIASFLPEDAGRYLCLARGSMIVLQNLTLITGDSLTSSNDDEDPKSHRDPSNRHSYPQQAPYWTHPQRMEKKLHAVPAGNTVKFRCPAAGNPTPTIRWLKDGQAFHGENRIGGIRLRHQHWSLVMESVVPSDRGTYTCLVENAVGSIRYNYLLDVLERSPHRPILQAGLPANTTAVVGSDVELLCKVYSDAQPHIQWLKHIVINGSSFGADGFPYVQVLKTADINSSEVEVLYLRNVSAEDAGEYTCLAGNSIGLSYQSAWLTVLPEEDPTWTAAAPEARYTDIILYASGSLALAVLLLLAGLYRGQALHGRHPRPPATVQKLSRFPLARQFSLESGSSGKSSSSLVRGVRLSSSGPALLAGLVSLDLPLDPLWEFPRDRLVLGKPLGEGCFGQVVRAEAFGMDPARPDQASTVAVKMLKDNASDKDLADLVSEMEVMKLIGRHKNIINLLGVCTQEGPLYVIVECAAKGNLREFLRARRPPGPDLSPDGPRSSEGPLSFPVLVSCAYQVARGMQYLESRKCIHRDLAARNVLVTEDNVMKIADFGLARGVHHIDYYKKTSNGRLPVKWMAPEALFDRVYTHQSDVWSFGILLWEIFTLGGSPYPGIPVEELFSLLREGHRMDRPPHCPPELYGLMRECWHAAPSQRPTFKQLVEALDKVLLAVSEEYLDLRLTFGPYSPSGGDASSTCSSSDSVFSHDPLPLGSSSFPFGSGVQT
Chain of FGFR2 (P21802 22-821): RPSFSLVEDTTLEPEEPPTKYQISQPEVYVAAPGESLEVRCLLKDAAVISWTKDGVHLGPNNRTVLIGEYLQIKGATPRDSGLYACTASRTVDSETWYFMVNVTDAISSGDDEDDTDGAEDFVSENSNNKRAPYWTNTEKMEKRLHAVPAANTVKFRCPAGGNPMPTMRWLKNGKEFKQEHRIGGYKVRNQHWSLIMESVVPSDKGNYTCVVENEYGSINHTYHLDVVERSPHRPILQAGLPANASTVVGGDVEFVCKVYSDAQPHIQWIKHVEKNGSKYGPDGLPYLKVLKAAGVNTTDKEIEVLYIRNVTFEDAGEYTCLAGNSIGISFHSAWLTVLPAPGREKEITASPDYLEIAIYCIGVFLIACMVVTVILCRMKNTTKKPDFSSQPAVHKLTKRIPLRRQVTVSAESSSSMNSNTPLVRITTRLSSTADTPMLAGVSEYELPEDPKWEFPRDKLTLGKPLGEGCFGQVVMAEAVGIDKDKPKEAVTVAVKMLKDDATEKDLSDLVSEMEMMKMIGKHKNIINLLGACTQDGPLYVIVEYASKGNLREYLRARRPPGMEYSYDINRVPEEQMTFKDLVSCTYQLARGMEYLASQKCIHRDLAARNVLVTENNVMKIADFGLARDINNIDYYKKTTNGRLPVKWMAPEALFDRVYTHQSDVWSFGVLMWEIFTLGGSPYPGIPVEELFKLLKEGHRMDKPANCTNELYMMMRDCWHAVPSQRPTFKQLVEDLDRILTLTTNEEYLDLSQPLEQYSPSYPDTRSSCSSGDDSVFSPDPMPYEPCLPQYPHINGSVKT

Row | SMILES | IC50 (FGFR2; pre-incubated for 4 hours) [nM] | FGFR1/FGFR3 IC50 ratio (FGFR3 enzyme; pre-incubated for 4 hours) | FGFR4/FGFR3 IC50 ratio (FGFR3 enzyme; pre-incubated for 4 hours) | IC50 (FGFR3 enzyme; pre-incubated for 4 hours) [nM] | IC50 (FGFR4; pre-incubated for 4 hours) [nM] | IC50 (FGFR1; [1]) [nM] | IC50 (FGFR1; [4]) [nM] | IC50 (FGFR1; FGFR1 IC50 (nM), pre-incubated for 5 to 10 minutes) [nM] | IC50 (FGFR2; [2]) [nM] | IC50 (FGFR3 enzyme; [2]) [nM] | FGFR1/FGFR4 IC50 ratio (FGFR4; [2]) | FGFR2/FGFR4 IC50 ratio (FGFR4; [2]) | FGFR3/FGFR4 IC50 ratio (FGFR4; [2]) | FGFR1/FGFR4 IC50 ratio (FGFR4; pre-incubated for 4 hours) | FGFR2/FGFR4 IC50 ratio (FGFR4; pre-incubated for 4 hours) | FGFR3/FGFR4 IC50 ratio (FGFR4; pre-incubated for 4 hours) | IC50 (FGFR4; [2]) [nM] | IC50 (FGFR1; [3]) [nM]
1 | COc1cc(OC)c(F)c(N2Cc3cnc(-c4cn(C5CCS(=O)(=O)C5)nc4C)cc3C3(CC3)C2=O)c1F (stereo not shown) [Example 54, 2′-(2,6-difluoro-3,5-dimethoxyphenyl)-6′-[1-(1,1-dioxidotetrahydro-3-thienyl)-3-methyl-1H-pyrazol-4-yl]-1′,2′-dihydro-3′H-spiro[cyclopropane-1,4′-[2,7]naphthyridin]-3′-one] | < 10 | >5 | >1 | < 10 | 10 to 30 | 30 to 200 | – | – | – | – | – | – | – | – | – | – | – | –
2 | COc1cc(OC)c(F)c(N2Cc3cnc(-c4cncc(-n5ccnc5)c4)cc3C3(CC3)C2=O)c1F [Example 12, 6′-(5-(1H-imidazol-1-yl)pyridin-3-yl)-2′-(2,6-difluoro-3,5-dimethoxyphenyl)-1′H-spiro[cyclopropane-1,4′-[2,7]naphthyridin]-3′(2′H)-one] | 30 to 200 | >3 | – | 30 to 200 | < 10 | – | > 200 | – | 30 to 200 | 30 to 200 | >50 | >25 | >20 | >50 | >25 | >10 | < 10 | > 200
3 | COc1cc(OC)c(F)c(N2Cc3cnc(-c4cncc(S(=O)(=O)N5CCOCC5)c4)cc3C3(CC3)C2=O)c1F [Example 14, 2′-(2,6-difluoro-3,5-dimethoxyphenyl)-6′-(5-(morpholinosulfonyl)pyridin-3-yl)-1′H-spiro[cyclopropane-1,4′-[2,7]naphthyridin]-3′(2′H)-one] | 30 to 200 | >5 | – | 30 to 200 | < 10 | – | > 200 | – | 30 to 200 | 10 to 30 | >25 | >5 | >5 | >50 | >10 | >1 | < 10 | > 200
4 | COc1cc(OC)c(F)c(N2Cc3cnc(-c4cn(C)nc4C)cc3N(C3CCCC3)C2=O)c1F [Example 32, 1-cyclopentyl-3-(2,6-difluoro-3,5-dimethoxyphenyl)-7-(1,3-dimethyl-1H-pyrazol-4-yl)-3,4-dihydropyrido[4,3-d]pyrimidin-2(1H)-one] | < 10 | >1 | >5 | < 10 | 10 to 30 | 10 to 30 | – | – | – | – | – | – | – | – | – | – | – | –
5 | COc1cc(OC)c(F)c(N2Cc3cnc(-c4cncc(CN5CCOCC5)c4)cc3C3(CC3)C2=O)c1F [Example 16, 2′-(2,6-difluoro-3,5-dimethoxyphenyl)-6′-(5-(morpholinomethyl)pyridin-3-yl)-1′H-spiro[cyclopropane-1,4′-[2,7]naphthyridin]-3′(2′H)-one] | 30 to 200 | >1 | – | 30 to 200 | < 10 | – | > 200 | – | 30 to 200 | 30 to 200 | >25 | >10 | >10 | >50 | >25 | >10 | < 10 | > 200
6 | COc1cc(OC)c(F)c(N2Cc3cnc(-c4cnn(C5(CC#N)CN(C(C)=O)C5)c4)cc3C3(CC3)C2=O)c1F [Example 56, 2-(1-acetyl-3-(4-(2′-(2,6-difluoro-3,5-dimethoxyphenyl)-3′-oxo-2′,3′-dihydro-1′H-spiro[cyclopropane-1,4′-[2,7]naphthyridine]-6′-yl)-1H-pyrazol-1-yl)azetidin-3-yl)acetonitrile] | 30 to 200 | >5 | >1 | 30 to 200 | 30 to 200 | – | > 200 | – | – | – | – | – | – | – | – | – | – | –
7 | COc1cc(OC)c(F)c(N2Cc3cnc(-c4cn(C)nc4C)cc3N(c3ccc4nc(C)oc4c3)C2=O)c1F [Example 75, 3-(2,6-difluoro-3,5-dimethoxyphenyl)-7-(1,3-dimethyl-1H-pyrazol-4-yl)-1-(2-methylbenzo[d]oxazol-6-yl)-3,4-dihydropyrido[4,3-d]pyrimidin-2(1H)-one] | 30 to 200 | >5 | >3 | 10 to 30 | 30 to 200 | 30 to 200 | – | – | – | – | – | – | – | – | – | – | – | –
8 | COc1cc(OC)c(F)c(N2Cc3cnc(-c4cn(C)nc4C)cc3N(c3cncnc3)C2=O)c1F [Example 61, 3-(2,6-difluoro-3,5-dimethoxyphenyl)-7-(1,3-dimethyl-1H-pyrazol-4-yl)-1-(pyrimidin-5-yl)-3,4-dihydropyrido[4,3-d]pyrimidin-2(1H)-one] | 30 to 200 | >10 | >5 | 10 to 30 | > 200 | – | > 200 | – | – | – | – | – | – | – | – | – | – | –
9 | COc1cc(OC)c(F)c(N2Cc3cnc(-c4cn(C)nc4C)cc3N(Cc3cnn(C)c3)C2=O)c1F [Example 72, 3-(2,6-difluoro-3,5-dimethoxyphenyl)-7-(1,3-dimethyl-1H-pyrazol-4-yl)-1-((1-methyl-1H-pyrazol-4-yl)methyl)-3,4-dihydropyrido[4,3-d]pyrimidin-2(1H)-one] | < 10 | >5 | >10 | < 10 | < 10 | – | < 10 | – | – | – | – | – | – | – | – | – | – | –

Continued, in another order:

Row | IC50 (FGFR2; pre-incubated for 4 hours) [nM] | FGFR1/FGFR3 IC50 ratio (FGFR3 enzyme; pre-incubated for 4 hours) | FGFR4/FGFR3 IC50 ratio (FGFR3 enzyme; pre-incubated for 4 hours) | IC50 (FGFR3 enzyme; pre-incubated for 4 hours) [nM] | IC50 (FGFR4; pre-incubated for 4 hours) [nM] | IC50 (FGFR1; [1]) [nM] | IC50 (FGFR1; [4]) [nM] | IC50 (FGFR1; FGFR1 IC50 (nM), pre-incubated for 5 to 10 minutes) [nM] | SMILES | IC50 (FGFR2; [2]) [nM] | IC50 (FGFR3 enzyme; [2]) [nM] | FGFR1/FGFR4 IC50 ratio (FGFR4; [2]) | FGFR2/FGFR4 IC50 ratio (FGFR4; [2]) | FGFR3/FGFR4 IC50 ratio (FGFR4; [2]) | FGFR1/FGFR4 IC50 ratio (FGFR4; pre-incubated for 4 hours) | FGFR2/FGFR4 IC50 ratio (FGFR4; pre-incubated for 4 hours) | FGFR3/FGFR4 IC50 ratio (FGFR4; pre-incubated for 4 hours) | IC50 (FGFR4; [2]) [nM] | IC50 (FGFR1; [3]) [nM]
10 | < 10 | >3 | >5 | < 10 | 30 to 200 | 10 to 30 | – | – | COc1cc(OC)c(F)c(N2Cc3cnc(-c4cn(C)nc4C)cc3N(c3ccccc3F)C2=O)c1F [Example 110, 3-(2,6-difluoro-3,5-dimethoxyphenyl)-7-(1,3-dimethyl-1H-pyrazol-4-yl)-1-(2-fluorophenyl)-3,4-dihydropyrido[4,3-d]pyrimidin-2(1H)-one] | – | – | – | – | – | – | – | – | – | –
11 | < 10 | >3 | >5 | < 10 | 30 to 200 | 10 to 30 | – | – | COc1cc(OC)c(F)c(N2Cc3cnc(-c4cn(C)nc4C)cc3N(c3ccc4cn[nH]c4c3)C2=O)c1F [Example 133, 3-(2,6-difluoro-3,5-dimethoxyphenyl)-7-(1,3-dimethyl-1H-pyrazol-4-yl)-1-(1H-indazol-6-yl)-3,4-dihydropyrido[4,3-d]pyrimidin-2(1H)-one] | – | – | – | – | – | – | – | – | – | –
12 | < 10 | >5 | >10 | < 10 | 30 to 200 | 30 to 200 | – | – | CCN1C(=O)N(c2c(F)c(OC)cc(OC)c2F)Cc2cnc(-c3ccc(C4(C#N)CCC4)cc3)cc21 [Example 181, 1-(4-(3-(2,6-difluoro-3,5-dimethoxyphenyl)-1-ethyl-2-oxo-1,2,3,4-tetrahydropyrido[4,3-d]pyrimidin-7-yl)phenyl)cyclobutanecarbonitrile] | – | – | – | – | – | – | – | – | – | –
13 | < 10 | >3 | >5 | < 10 | 30 to 200 | 10 to 30 | – | – | COc1ccc(N2C(=O)N(c3c(F)c(OC)cc(OC)c3F)Cc3cnc(-c4cn(C)nc4C)cc32)cc1 [Example 104, 3-(2,6-difluoro-3,5-dimethoxyphenyl)-7-(1,3-dimethyl-1H-pyrazol-4-yl)-1-(4-methoxyphenyl)-3,4-dihydropyrido[4,3-d]pyrimidin-2(1H)-one] | – | – | – | – | – | – | – | – | – | –
14 | < 10 | >5 | >3 | < 10 | 10 to 30 | 10 to 30 | – | – | COc1cc(OC)c(F)c(N2Cc3cnc(-c4cnn(CCN5CCC(OC)C5)c4)cc3C3(CC3)C2=O)c1F (stereo not shown) [Example 161, 2′-(2,6-difluoro-3,5-dimethoxyphenyl)-6′-(1-(2-(3-methoxypyrrolidin-1-yl)ethyl)-1H-pyrazol-4-yl)-1′H-spiro[cyclopropane-1,4′-[2,7]naphthyridin]-3′(2′H)-one] | – | – | – | – | – | – | – | – | – | –
15 | – | – | – | – | – | – | – | 10 to 30 | COc1cc(OC)c(F)c(N2Cc3cnc(-c4cn(C)nc4C)cc3N(Cc3cnn(CC4CC4)c3)C2=O)c1F [Example 126, 1-((1-(cyclopropylmethyl)-1H-pyrazol-4-yl)methyl)-3-(2,6-difluoro-3,5-dimethoxyphenyl)-7-(1,3-dimethyl-1H-pyrazol-4-yl)-3,4-dihydropyrido[4,3-d]pyrimidin-2(1H)-one] | < 10 | < 10 | – | – | – | – | – | – | 30 to 200 | –
16 | < 10 | >3 | >5 | < 10 | 30 to 200 | 30 to 200 | – | – | COc1cnc(N2C(=O)N(c3c(F)c(OC)cc(OC)c3F)Cc3cnc(-c4cn(C)nc4C)cc32)cn1 [Example 112, 3-(2,6-difluoro-3,5-dimethoxyphenyl)-7-(1,3-dimethyl-1H-pyrazol-4-yl)-1-(5-methoxypyrazin-2-yl)-3,4-dihydropyrido[4,3-d]pyrimidin-2(1H)-one] | – | – | – | – | – | – | – | – | – | –
17 | < 10 | >5 | >3 | < 10 | 10 to 30 | 30 to 200 | – | – | COC(=O)Nc1ccc(N2C(=O)N(c3c(F)c(OC)cc(OC)c3F)Cc3cnc(-c4cn(C)nc4C)cc32)cc1 [Example 123, Methyl 4-(3-(2,6-difluoro-3,5-dimethoxyphenyl)-7-(1,3-dimethyl-1H-pyrazol-4-yl)-2-oxo-3,4-dihydropyrido[4,3-d]pyrimidin-1(2H)-yl)phenylcarbamate] | – | – | – | – | – | – | – | – | – | –
